Publication PMC11808583 (Current Neuropharmacology, 2024)

Assays:
AChE = AChE (Electrophorus electricus, UniProt O42275); test: Ellman's assay, AChE (type VI-S) inhibition; type: biochemical
BChE = BChE (Equus caballus, UniProt P81908); test: Ellman's assay, BChE inhibition; type: biochemical
Chain of BChE (P81908 whole entry): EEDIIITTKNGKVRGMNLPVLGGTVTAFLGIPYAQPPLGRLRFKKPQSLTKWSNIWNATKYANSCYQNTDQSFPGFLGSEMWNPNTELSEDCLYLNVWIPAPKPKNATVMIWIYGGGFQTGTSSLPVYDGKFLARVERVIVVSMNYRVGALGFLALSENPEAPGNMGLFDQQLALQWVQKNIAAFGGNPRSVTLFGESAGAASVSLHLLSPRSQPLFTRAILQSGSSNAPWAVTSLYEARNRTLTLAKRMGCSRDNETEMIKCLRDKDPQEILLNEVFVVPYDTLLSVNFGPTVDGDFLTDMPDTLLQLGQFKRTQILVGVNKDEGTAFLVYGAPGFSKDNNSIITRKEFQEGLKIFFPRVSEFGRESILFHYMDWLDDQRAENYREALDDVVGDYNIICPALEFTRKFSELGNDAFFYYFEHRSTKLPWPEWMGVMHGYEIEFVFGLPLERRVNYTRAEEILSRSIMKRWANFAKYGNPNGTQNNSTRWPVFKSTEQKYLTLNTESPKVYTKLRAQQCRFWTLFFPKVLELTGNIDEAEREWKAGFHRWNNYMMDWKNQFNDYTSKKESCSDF

Chain of AChE (O42275 24-633): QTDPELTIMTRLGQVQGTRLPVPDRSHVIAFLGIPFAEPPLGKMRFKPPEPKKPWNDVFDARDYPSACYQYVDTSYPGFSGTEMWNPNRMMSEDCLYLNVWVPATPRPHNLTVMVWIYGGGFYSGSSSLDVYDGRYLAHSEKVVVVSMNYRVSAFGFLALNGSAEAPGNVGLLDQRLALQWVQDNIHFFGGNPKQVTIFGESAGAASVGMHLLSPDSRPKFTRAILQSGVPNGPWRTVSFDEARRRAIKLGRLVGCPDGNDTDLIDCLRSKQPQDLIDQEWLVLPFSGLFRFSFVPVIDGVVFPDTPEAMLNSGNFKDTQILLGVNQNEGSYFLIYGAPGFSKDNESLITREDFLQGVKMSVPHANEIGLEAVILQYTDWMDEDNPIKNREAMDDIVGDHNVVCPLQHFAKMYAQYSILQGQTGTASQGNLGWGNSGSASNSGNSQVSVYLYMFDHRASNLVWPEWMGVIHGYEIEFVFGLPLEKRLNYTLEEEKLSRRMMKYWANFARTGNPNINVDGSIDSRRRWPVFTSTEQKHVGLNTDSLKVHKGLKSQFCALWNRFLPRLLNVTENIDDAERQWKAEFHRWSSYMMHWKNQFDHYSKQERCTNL

Q: Which IC50 (AChE) does the source give for `C/C=C\c1ccc(O)c(OC)c1` [isoeugenol] here?
A: 2620 µM

Q: What about the IC50 (BChE) of the same molecule?
A: 1690 µM
